pIC50: −log10 of the molar value. Where a SMILES comes first, the peptide text is derived from it. [ ]: non-standard residue; d: D form.
How the values were obtained:
PI3-kinase = details: different cell types (Folks et al., 2008); cited from earlier work
[1] = tested on: H-1650 non small cell lung carcinoma cells; experiment: AlamarBlue cell viability assay, H-1650 cells; type: cell-based
Protocol: FIG. 1. H-1650 non small cell lung carcinoma cells in a 96-well plate were treated with various concentrations of purified GO-203-2C for four days. AlamarBlue dye was added to the cells on day 5, and the absorbance was measured at 570 and 600 nm. A 4-parameter curve was obtained by plotting the percentage reduction of alamarBlue calculated using these absorbance values against the concentration of GO-203-2C used.
alamarBlue assay involves the usage of a fluorometric/colorimetric growth indicator, alamarBlue based on the metabolic activity of cells. As cells grow, the innate metabolic activity results in a chemical reduction of alamarBlue. Continued growth maintains a reduced environment while inhibition of growth maintains an oxidized environment. Live cells cause the change of alamarBlue from oxidized (non-fluorescent, blue) form to reduced (fluorescent, red) form. Data can be collected using either fluorescence-based or absorbance-based instrumentation. Fluorescence is monitored at 530-560 nm excitation wavelength and at 590 nm emission wavelength. Absorbance is monitored at 570 am and 600 nm.
This assay was developed with a 96-well plate using ZR-75-1 or MCF-7 (breast carcinoma cell lines) or H1650 non-small cell lung carcinoma cells at different cell concentrations and the optimal cell number was calculated to be 5,000 cells/well in […] volume. The cell number/well has to be optimized for each cell type to be tested. ZR-75-1 or MCF-7 cells were treated with various concentrations of GO-203-2c, LY294002 or GDC-0941 with 2-fold serial dilutions to obtain a total of 8 different concentrations. Cells in triplicate wells were treated with each concentration of GO-203-2c every day, for 4 days. […] At the end of each hour, absorbance of the plate was measured at 570 nm and 600 nm as reference. A set of blank wells was maintained with medium alone and medium with alamarBlue for the purpose of calculating actual absorbance. Obtained absorbance values were plotted against respective concentrations of GO-2-3-2c. […]

p-AKT = experiment: Immunoblotting of total cell lysates with anti-phospho-AKT; type: cell-based; details: ZR-75-1 cells, combined with LY294002 (FIG. 8)
Protocol: FIG. 8. ZR-75-1 breast carcinoma cells were treated with GO-203-2C and LY294002 either alone or in combination. Total cell lysates were prepared and analyzed by immunoblotting with anti-phospho-AKT (top panel) or anti-AKT (bottom panel).

p-S6K = experiment: Immunoblotting of total cell lysates with anti-phospho-S6K; type: cell-based; details: ZR-75-1 cells, combined with GDC-0941 (FIG. 9)
Protocol: FIG. 9. ZR-75-1 breast carcinoma cells were treated with GO-203-2C and GDC-0941 either alone or in combination. Total cell lysates were prepared and analyzed by immunoblotting with anti-phospho-S6K (top panel) or anti-S6K (bottom panel).

SMILES	pIC50 (PI3-kinase)	live cells ([1]; at 10 mM)	percent reduction of alamarBlue ([1]; highest concentration tested (10 mM))	percent reduction of alamarBlue ([1]; lowest concentration tested (0.078 mM), untreated control 55.34%)	effect on p-AKT (p-AKT)	effect on p-S6K (p-S6K)
CS(=O)(=O)N1CCN(Cc2cc3nc(-c4cccc5[nH]ncc45)nc(N4CCOCC4)c3s2)CC1 [GDC-0941]	5.70 to 6.30	–	–	–	–	–
CC(=O)N[C@H](CCCNC(=N)N)C(=O)N[C@H](CCCNC(=N)N)C(=O)N[C@H](CCCNC(=N)N)C(=O)N[C@H](CCCNC(=N)N)C(=O)N[C@H](CCCNC(=N)N)C(=O)N[C@H](CCCNC(=N)N)C(=O)N[C@H](CCCNC(=N)N)C(=O)N[C@H](CCCNC(=N)N)C(=O)N[C@H](CCCNC(=N)N)C(=O)N[C@H](CS)C(=O)N[C@H](CCC(N)=O)C(=O)N[C@H](CS)C(=O)N[C@H](CCCNC(=N)N)C(=O)N[C@H](CCCNC(=N)N)C(=O)N[C@H](CCCCN)C(=O)N[C@H](CC(N)=O)C(N)=O [GO-203-2C] (Ac-[dR][dR][dR][dR][dR][dR][dR][dR][dR][dC][dQ][dC][dR][dR][dK][dN]-NH2)	–	12.3%	6.86%	55.65%	contributing to the downregulation	contributing to the downregulation

From patent US9044421B2, “Treating MUC1-expressing cancers with combination therapies” (GENUS ONCOLOGY, LLC., priority 2012, dated 2015)
